Data from the supplement of paper PMC10307832.

Key:
Assay in all cases: relative viability (nuclei count vs DMSO), 5 days (fraction); higher = more cells survive
AZ3146 + OSI-027 = compound: CN1CCC(CC1)OC2=CC(=C(C=C2)NC3=NC=C4C(=N3)N(C(=O)N4C)C5CCCC5)OC [AZ3146] + COc1cccc2cc(-c3nc([C@H]4CC[C@H](C(=O)O)CC4)n4ncnc(N)c34)[nH]c12 [OSI-027] (partner 0.5 µM)
In short: (§1)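 Medians of duplicate plates are given as relative viability. That measure is the nuclei count in treated wells divided by the count in vehicle wells. Counts were taken on 4× images of lung cancer cell lines in 1536-well plates, 5 days after pin-tool dosing the day after seeding with one drug alone or a fixed anchor-drug dose plus five library-drug doses (not always all listed) in √10 steps.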

AZ3146 + Vorinostat = compound: CN1CCC(CC1)OC2=CC(=C(C=C2)NC3=NC=C4C(=N3)N(C(=O)N4C)C5CCCC5)OC [AZ3146] + O=C(CCCCCCC(=O)Nc1ccccc1)NO [Vorinostat] (partner 1 µM)
In short: as §1

AZ3146 + Linsitinib = compound: CN1CCC(CC1)OC2=CC(=C(C=C2)NC3=NC=C4C(=N3)N(C(=O)N4C)C5CCCC5)OC [AZ3146] + C[C@]1(O)C[C@@H](c2nc(-c3ccc4ccc(-c5ccccc5)nc4c3)c3c(N)nccn32)C1 [Linsitinib] (partner 1 µM)
In short: as §1

AZ3146 + Alpelisib = compound: CN1CCC(CC1)OC2=CC(=C(C=C2)NC3=NC=C4C(=N3)N(C(=O)N4C)C5CCCC5)OC [AZ3146] + Cc1nc(NC(=O)N2CCC[C@H]2C(N)=O)sc1-c1ccnc(C(C)(C)C(F)(F)F)c1 [Alpelisib] (partner 2 µM)
In short: as §1

Cell Line	relative viability (AZ3146 + OSI-027; first compound 0.08 µM)	relative viability (AZ3146 + OSI-027; first compound 0.253 µM)	relative viability (AZ3146 + OSI-027; first compound 0.8 µM)	relative viability (AZ3146 + OSI-027; first compound 2.53 µM)	relative viability (AZ3146 + OSI-027; first compound 8 µM)	relative viability (AZ3146 + Vorinostat; first compound 0.08 µM)	relative viability (AZ3146 + Vorinostat; first compound 0.253 µM)	relative viability (AZ3146 + Vorinostat; first compound 0.8 µM)	relative viability (AZ3146 + Vorinostat; first compound 2.53 µM)	relative viability (AZ3146 + Vorinostat; first compound 8 µM)	relative viability (AZ3146 + Linsitinib; first compound 0.08 µM)	relative viability (AZ3146 + Linsitinib; first compound 0.253 µM)	relative viability (AZ3146 + Linsitinib; first compound 0.8 µM)	relative viability (AZ3146 + Linsitinib; first compound 2.53 µM)	relative viability (AZ3146 + Linsitinib; first compound 8 µM)	relative viability (AZ3146 + Alpelisib; first compound 0.08 µM)	relative viability (AZ3146 + Alpelisib; first compound 0.253 µM)	relative viability (AZ3146 + Alpelisib; first compound 0.8 µM)	relative viability (AZ3146 + Alpelisib; first compound 2.53 µM)	relative viability (AZ3146 + Alpelisib; first compound 8 µM)
NCI-H1915	0.519	0.637	0.663	0.625	0.628	0.371	0.513	0.535	0.559	0.498	1.09	1.12	1.09	1.1	1.11	0.978	1	1	1.06	1.04
HOP-62	0.755	0.796	0.742	0.857	0.866	0.337	0.664	0.598	0.699	0.385	1.05	0.978	1.06	1.06	1.05	0.896	0.96	0.796	1.07	0.832
LXF-289	0.775	0.704	0.77	0.781	0.77	0.752	0.827	0.796	0.872	0.587	0.885	1.01	0.965	0.957	0.939	1.02	1	0.96	1.06	0.946
LCLC-103H	0.423	0.474	0.529	0.456	0.501	0.51	0.726	0.78	0.844	0.711	1.06	0.978	1.16	1.13	1.1	0.985	0.886	0.859	1.03	0.99
NCI-H441	0.611	0.656	0.528	0.663	0.529	0.674	0.803	0.557	0.821	0.647	0.479	0.525	0.474	0.635	0.621	0.58	0.719	0.675	0.787	0.647
BEN	–	0.306	0.206	0.285	0.309	–	0.54	0.608	0.558	0.588	–	0.919	0.703	1.01	0.843	–	0.967	1.06	1.07	0.895
NCI-H2009	0.631	0.621	0.651	0.703	0.436	0.635	0.673	0.743	0.704	0.543	1.09	1.22	1.22	1.27	1.16	1.1	1.17	1.19	1.24	1.05
